Assay results taken from patent publication US20110123617A1, “CLIOQUINOL FOR THE TREATMENT OF HEMATOLOGICAL MALIGNANCIES” (priority 2007, published 2011).

What was measured:
ubiquitinated proteins = experiment: Immunoblotting of ubiquitinated proteins; format: cell-based; details: leukemia and myeloma cells
Protocol: (§1) Effect of increasing concentrations of clioquinol on LP1 and MY5 multiple myeloma cells at twenty hours after clioquinol treatment; determined by SDS-PAGE immunoblotting. To prepare cytosolic extracts, NIH3T3 cells and myeloma cells were washed with phosphate-buffered saline (PBS, pH 7.4) and suspending in lysis buffer [10 mM Tris (pH 7.4), 150 mM NaCl, 0.1% Triton X-100, 0.5% sodium deoxycholate, and 5 mM EDTA] containing protease inhibitors (Complete tablets, Roche, Indianapolis, Ind.). Protein concentrations were determined by the Bradford assay. Immunoblot assays were performed by subjecting equal amounts of protein to SDS-PAGE gels followed by transfer to Nitrocellulose membranes. Membranes were probed with polyclonal rabbit anti-human cyclin D2 (0.5 μg/ml, both from Santa Cruz Biotech, Santa Cruz, Calif.), or monoclonal mouse-anti human p21 (1:200 v/v, Santa Cruz Biotech), monoclonal mouse-anti human p27 (1:2,500 v/v BD Transduction Laboratories), polyclonal mouse-anti human ubiquitin (1:2,000 v/v Calbiochem) and monoclonal mouse-anti-β-actin (1:10,000 v/v) (Sigma, St. Lois, Mo.). Secondary antibodies (Amersham Bioscience UK, Little Chalfont, England) were horseradish peroxidase (HRP)-conjugated goat anti-mouse IgG (1:10,000 v/v) and anti-rabbit (1:5,000 v/v). Detection was performed by the Enhanced Chemical Luminescence (ECL) method (Pierce, Rockford, Ill.).

[1] = patients, after oral administration; cited from earlier work
[2] = test system: AML3, U937, LP1 and MY5 cells; experiment: Cell cycle analysis (PI staining and flow cytometry); format: cell-based; details: low micromolar concentrations
Protocol: A) Effect of increasing concentrations of clioquinol on LP1 and MY5 multiple myeloma cells at twenty hours after clioquinol treatment; determined by SDS-PAGE immunoblotting. B) Effect of increasing concentrations of clioquinol on the G0/G1 ratio in AML3, U937, LP1 and MY5 cells at twenty hours after clioquinol treatment; determined by PI staining and flow cytometry. Cells were harvested, washed with cold PBS, suspended in 70% cold ethanol and incubated overnight at −20° C. Cells were then treated with 100 ng/ml of DNase-free RNase (InvitroGen) at 37° C. for 30 min, washed with cold PBS, and resuspended in PBS with 50 μg/ml of propidium iodine. DNA content was analyzed by flow cytometry (FACSCalibur, Becton Dickinson, Fla., USA). The percentage of cells in each phase of the cell cycle was calculated with ModiFit software (Becton Dickinson).

p27 = experiment: Immunoblotting of p27; format: cell-based; details: low micromolar concentrations
From the text: as §1, with “A) Effect” for “Effect”, “immunoblotting. B) Effect of increasing concentrations of clioquinol on the G0/G1 ratio in AML3, U937, LP1 and MY5 cells at twenty hours after clioquinol treatment; determined by PI staining and flow cytometry.” for “immunoblotting.”, “Secondary antibodies (Amersham Bioscience UK, Little Chalfont, England) were horseradish peroxidase (HRP)-conjugated goat anti-mouse IgG (1:10,000 v/v) and anti-rabbit (1:5,000 v/v).” left out

## Oc1c(I)cc(Cl)c2cccnc12 [clioquinol, 5-chloro-7-iodo-8-hydroxyquinoline]
Ubiquitinated proteins
  amount of ubiquitinated protein: increased the amount of ubiquitinated protein
[1]
  trough serum concentrations: 20 µM
[2]
  cell cycle arrest: arrested cells in the G1 phase
p27
  expression of p27: increased expression
